Measurements published in patent US20240376124A1, “Macrocyclic Kinase Inhibitors” (Incyte Corporation, priority 2023, published 2024).
Where “and” joins values, the source holds several entries; their conditions need not be identical. Identical values can stand only once.

Columns and labels:
[1] = from [2H]C([2H])([2H])n1c(=O)n([C@H]2CC[C@@](CC=C)(NC(=O)[C@H]3C[C@H]3F)CC2)c2c3c(-c4ccc(OCCC=C)cc4)cn(S(=O)(=O)c4ccccc4)c3ncc21, rcm bond, Grubbs catalyst 2nd generation, dichloromethane, 19.0 mM, 40.0 °C
[2] = molecular target: T1, pseudo-kinase domain (JH2, amino-acids 536-812) of human V617F mutant JAK2 (Homo sapiens, UniProt O60674, F794H/V617F/W659A/W777A); assay: JAK2 LanthaScreen JH2-V617F Binding Assay; details: 50 nM tracer, read-out: JH2BINDING—V617F IC50
T1 construct: pseudo-kinase domain (JH2, amino-acids 536-812 with 3 surface mutations W659A, W777A, F794H); His (C); purchased BPS Bioscience 79498; host or cells: baculovirus expression system
Procedure: Example C. JAK2 LanthaScreen JH2-V617F Binding Assay
(§1) JAK2 JH2-V617F binding assay utilizes pseudo-kinase domain (JH2, amino-acids 536-812 with 3 surface mutations W659A, W777A, F794H) of human V617F mutant JAK2 expressed as C-terminal His-Avi-tagged, biotinylated protein in a baculovirus expression system (BPS Bioscience, Catalog #79498). The assay was conducted in black 384-well polystyrene plates in a final reaction volume of 20 μL. JAK2 JH2-V617F (0.26 nM) was incubated with compounds (100 nL serially diluted in DMSO) in the presence of 50 nM Fluorescent JAK2-JH2 Tracer (MedChem Express Catalog #HY-102055) and 0.25 nM Streptavidin-Tb cryptate (Cisbio Part #610SATLB) in assay buffer (50 mM Tris, pH=7.5, 10 mM MgCl2, 0.01% Brij-35, 0.1% BSA, 1 mM EGTA, 5% Glycerol and 5 mM DTT). Non-specific binding was accessed in the presence of 2 mM ATP. After incubation for 1 hour at 25° C., LanthaScreen signals were read on a PHERAstar FS plate reader (BMG LABTECH). Data was analyzed with IDBS XLfit and GraphPad Prism 5.0 software using a four parameter dose response curve to determine IC50 for each compound.

[3] = molecular target: T2, pseudo-kinase domain (JH2, amino-acids 536-812) of human Wild Type JAK2 (Homo sapiens, UniProt O60674, F794H/W659A/W777A); assay: JAK2 LanthaScreen JH2-WT Binding Assay; details: 50 nM tracer, read-out: JH2BIND_WT IC50
T2 construct: pseudo-kinase domain (JH2, amino-acids 536-812 with 3 surface mutations W659A, W777A, F794H); His (C); purchased BPS Bioscience 79463; host or cells: baculovirus expression system
Procedure: Example B. JAK2 LanthaScreen JH2-WT Binding Assay
as §1, with “JH2-WT” for “JH2-V617F”, “Wild Type” for “V617F mutant”, “#79463).” for “#79498).”, “JH2-WT (0.145” for “JH2-V617F (0.26”

[4] = molecular target: T3, catalytic domain (JH1, amino acids 826-1132) of human JAK2 (Homo sapiens, UniProt O60674); assay: JAK2 LanthaScreen JH1 binding assay; details: JAK2 JH1, 50 nM tracer; read-out: JH1BIND IC50
T3 construct: catalytic domain (JH1, amino acids 826-1132) of human JAK2; FLAG (N); purchased Carna Biosciences 08-445-20N; host or cells: baculovirus expression system
Procedure: Example A. JAK2 LanthaScreen […] Binding Assay
JAK2 JH1 binding assay utilizes catalytic domain (JH1, amino acids 826-1132) of human JAK2 expressed as N-terminal FLAG-tagged, biotinylated protein in a baculovirus expression system (Carna Biosciences, Product #08-445-20N). The assay was conducted in black 384-well polystyrene plates in a final reaction volume of 20 μL. JAK2 JH1 (1.5 nM) was incubated with compounds (100 nL serially diluted in DMSO) in the presence of 50 nM fluorescent JAK2-JH1 tracer and 0.5 nM Streptavidin-Tb cryptate (Cisbio Part #610SATLB) in assay buffer (50 mM Tris, pH=7.5, 10 mM MgCl2, 0.01% Brij-35, 0.1% BSA, 1 mM EGTA, […] and 5 mM DTT). Non-specific binding was accessed in the presence of 2 mM ATP. After incubation for 2 hours at 25° C., LanthaScreen signals were read on a PHERAstar FS plate reader (BMG LABTECH).
Data was analyzed with IDBS XLfit and GraphPad Prism 5.0 software using a four parameter dose response curve to determine IC50 for each compound.

[5] = molecular target: T4, catalytic domain (JH1, amino acids 808-1132) of human JAK2 (Homo sapiens, UniProt O60674); assay: JAK2 HTRF Enzyme Activity Assay; type: biochemical; details: ATP 30 μM; read-out: ENZ 30UMATP IC50
T4 construct: catalytic domain (JH1, amino acids 808-1132) of human JAK2; His (N); purchased BPS Bioscience 40450; host or cells: baculovirus expression system
Procedure: Example D. JAK2 HTRF Enzyme Activity Assay
JAK2 enzyme activity assays utilize catalytic domain (JH1, amino acids 808-1132) of human JAK2 expressed as N-terminal His-tagged protein in a baculovirus expression system (BPS Bioscience, Catalog #40450). The assays was conducted in black 384-well polystyrene plates in a final reaction volume of 20 μL. JAK2 (0.015 nM) was incubated with compounds (100 nL serially diluted in DMSO) in the presence of ATP (30 μM or 1 mM) and 500 nM Biotin-labeled EQEDEPEGDYFEWLE (SEQ ID NO.: 1) peptide (BioSource International, custom synthesis) in assay buffer (50 mM Tris, pH=7.5, 10 mM MgCl2, 0.01% Brij-35, 0.1% BSA, 1 mM EGTA, 5% Glycerol and 5 mM DTT) for 60 minutes at 25° C. The reactions were stopped by the addition of 10 μL of detection buffer (50 mM Tris, pH 7.8, 0.5 mg/mL BSA, 150 mM NaCl), supplemented with EDTA, LANCE Eu-W1024 anti-phosphotyrosine (PY20), (PerkinElmer, Catalog #AD0067) and Streptavidin SureLight APC (PerkinElmer Catalog #CR130-100), for a final concentration of 15 mM, 1.5 nM and 75 nM, respectively. HTRF signals were read after 30 minutes incubation at room temperature on a PHERAstar FS plate reader (BMG LABTECH). Data was analyzed with IDBS XLfit and GraphPad Prism 5.0 software using a four parameter dose response curve to determine IC50 for each compound. The compounds of the disclosure were tested in one or more of the assays described in Examples A-D, and the resulting data are shown in Table A.

T2 sequence (O60674 536-812 W659A/W777A/F794H): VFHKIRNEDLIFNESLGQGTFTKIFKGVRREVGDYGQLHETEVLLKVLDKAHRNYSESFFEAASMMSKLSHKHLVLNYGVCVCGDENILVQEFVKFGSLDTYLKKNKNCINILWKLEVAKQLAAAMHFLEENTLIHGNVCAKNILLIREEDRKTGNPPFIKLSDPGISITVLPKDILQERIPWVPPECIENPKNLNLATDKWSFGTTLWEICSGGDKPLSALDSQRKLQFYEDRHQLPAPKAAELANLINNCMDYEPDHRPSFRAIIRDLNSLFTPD
T4 sequence (O60674 808-1132): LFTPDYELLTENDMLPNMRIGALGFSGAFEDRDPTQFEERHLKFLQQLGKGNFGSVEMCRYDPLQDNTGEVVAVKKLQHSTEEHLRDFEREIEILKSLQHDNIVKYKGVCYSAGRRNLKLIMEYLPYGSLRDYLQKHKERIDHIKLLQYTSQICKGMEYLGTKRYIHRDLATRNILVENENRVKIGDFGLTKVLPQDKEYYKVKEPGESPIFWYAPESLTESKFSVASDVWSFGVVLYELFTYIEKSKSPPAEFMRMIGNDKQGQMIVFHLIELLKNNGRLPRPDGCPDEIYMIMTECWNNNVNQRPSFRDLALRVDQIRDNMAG
T3 sequence (O60674 826-1132): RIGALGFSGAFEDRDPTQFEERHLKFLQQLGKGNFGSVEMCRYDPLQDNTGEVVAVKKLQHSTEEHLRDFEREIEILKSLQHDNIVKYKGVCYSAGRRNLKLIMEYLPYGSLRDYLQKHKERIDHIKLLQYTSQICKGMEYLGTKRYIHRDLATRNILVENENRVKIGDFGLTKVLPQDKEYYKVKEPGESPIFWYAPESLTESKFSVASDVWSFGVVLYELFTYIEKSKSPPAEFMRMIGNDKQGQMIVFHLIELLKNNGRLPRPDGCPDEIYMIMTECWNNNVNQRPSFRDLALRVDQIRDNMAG
T1 sequence (O60674 536-812 V617F/W659A/W777A/F794H): as the sequence (O60674 536-812 W659A/W777A/F794H) above, with V82F counted along it

Row | Compound | ring closure, yield of all isomers [1] | IC50 [2] | IC50 [3] | IC50 [4] | IC50 [5]
1 | [2H]C([2H])([2H])n1c(=O)n2c3c4c(cn(S(=O)(=O)c5ccccc5)c4ncc31)-c1ccc(cc1)OCCC=CC[C@]1(NC(=O)[C@H]3C[C@H]3F)CC[C@@H]2CC1 | 98% |  |  |  | 
2 | [2H]C([2H])([2H])n1c(=O)n2c3c4c(c(-c5cnn(CC(F)F)c5)[nH]c4ncc31)-c1ccc(cc1)OCC/C=C/C[C@]1(NC(=O)[C@H]3C[C@H]3F)CC[C@@H]2CC1 [Example 11, (1R,2R)-N-((3^1S,3^4s,E)-2^7-(1-(2,2-difluoroethyl)-1H-pyrazol-4-yl)-2^3-(methyl-d3)-2^2-oxo-2^1,2^2,2^3,2^6-tetrahydro-9-oxa-2(8,1)-imidazo[4,5-d]pyrrolo[2,3-b]pyridina-1(1,4)-benzena-3(1,4)-cyclohexanacyclononaphan-5-en-3^4-yl)-2-fluorocyclopropane-1-carboxamide] |  | ≤ 10 nM | ≤ 10 nM | 500 to 1000 nM | > 1000 nM
3 | [2H]C([2H])([2H])n1c(=O)n2c3c4c(c(-c5cn(CC)nc5F)[nH]c4ncc31)-c1ccc(cc1)OCC/C=C/C[C@]1(NC(=O)[C@H]3C[C@H]3F)CC[C@@H]2CC1 [Example 12, (1R,2R)-N-((3^1S,3^4s,E)-2^7-(1-ethyl-3-fluoro-1H-pyrazol-4-yl)-2^3-(methyl-d3)-2^2-oxo-2^1,2^2,2^3,2^6-tetrahydro-9-oxa-2(8,1)-imidazo[4,5-d]pyrrolo[2,3-b]pyridina-1(1,4)-benzena-3(1,4)-cyclohexanacyclononaphan-5-en-3^4-yl)-2-fluorocyclopropane-1-carboxamide] |  | ≤ 10 nM | ≤ 10 nM | 500 to 1000 nM and > 1000 nM | 500 to 1000 nM and > 1000 nM
4 | [2H]C([2H])([2H])n1c(=O)n2c3c4c(c(-c5cn(C(C)C)nc5F)[nH]c4ncc31)-c1ccc(cc1)OCC/C=C/C[C@]1(NC(=O)[C@H]3C[C@H]3F)CC[C@@H]2CC1 [Example 13, (1R,2R)-2-fluoro-N-((3^1S,3^4s,E)-2^7-(3-fluoro-1-isopropyl-1H-pyrazol-4-yl)-2^3-(methyl-d3)-2^2-oxo-2^1,2^2,2^3,2^6-tetrahydro-9-oxa-2(8,1)-imidazo[4,5-d]pyrrolo[2,3-b]pyridina-1(1,4)-benzena-3(1,4)-cyclohexanacyclononaphan-5-en-3^4-yl)cyclopropane-1-carboxamide] |  | ≤ 10 nM | ≤ 10 nM | > 1000 nM | > 1000 nM
5 | [2H]C([2H])([2H])n1c(=O)n2c3c4c(c(-c5cn(CC6CC6)nc5F)[nH]c4ncc31)-c1ccc(cc1)OCC/C=C/C[C@]1(NC(=O)[C@H]3C[C@H]3F)CC[C@@H]2CC1 [Example 14, (1R,2R)-N-((3^1S,3^4s,E)-2^7-(1-(cyclopropylmethyl)-3-fluoro-1H-pyrazol-4-yl)-2^3-(methyl-d3)-2^2-oxo-2^1,2^2,2^3,2^6-tetrahydro-9-oxa-2(8,1)-imidazo[4,5-d]pyrrolo[2,3-b]pyridina-1(1,4)-benzena-3(1,4)-cyclohexanacyclononaphan-5-en-3^4-yl)-2-fluorocyclopropane-1-carboxamide] |  | ≤ 10 nM | ≤ 10 nM | 500 to 1000 nM and > 1000 nM | 500 to 1000 nM and > 1000 nM
6 | N-((3^1r,3^4s)-2^7-(3-Methoxy-1-methyl-1H-pyrazol-4-yl)-2^3-(methyl-d3)-2^2-oxo-2^1,2^2,2^3,2^6-tetrahydro-8-oxa-2(8,1)-imidazo[4,5-d]pyrrolo[2,3-b]pyridina-1(1,4)-benzena-3(1,4)-cyclohexanacyclooctaphane-3^4-yl)cyclopropanecarboxamide [Example 5] |  | ≤ 10 nM | ≤ 10 nM | > 1000 nM | > 1000 nM
7 | N-((3^1r,3^4s)-2^7-(3-Methoxy-1-methyl-1H-pyrazol-4-yl)-2^3-(methyl-d3)-2^2-oxo-2^1,2^2,2^3,2^6-tetrahydro-9-oxa-2(8,1)-imidazo[4,5-d]pyrrolo[2,3-b]pyridina-1(1,4)-benzena-3(1,4)-cyclohexanacyclononaphane-3^4-yl)cyclopropanecarboxamide [Example 4] |  | ≤ 10 nM | ≤ 10 nM | > 1000 nM | > 1000 nM
